Experimental data published in paper PMC10900215 (JACS Au, 2024).

What was measured:
Cereblon (CRBN) = target: T1, Cereblon (CRBN) (Homo sapiens, UniProt Q96SW2); assay: Cellular thermal shift assay (CETSA) in MOLM-13, Cereblon; format: cell-based; conditions: MOLM-13, 54 °C
T1 construct: endogenous in cells; host or cells: MOLM-13

METTL3 [1] = target: T2, METTL3 (Homo sapiens, UniProt Q86U44); assay: Cellular thermal shift assay (CETSA) in MOLM-13, METTL3; format: cell-based; conditions: MOLM-13, 54 °C
T2 construct: METTL3–14 degradation up to 70% of the endogenous level; endogenous in cells; host or cells: MOLM-13, PC3, DU145
Protocol: One million of MOLM-13 cells were suspended in 100 μL of PBS (10010023, Thermo Fisher Scientific) containing 2× protease inhibitor cocktail (11697498001, Roche), for each condition tested. Cells were incubated with compounds or DMSO control (1% (v/v)) for 1 h at 37 °C. They were then heat treated at 54 °C in a thermoblock for 3 min, followed by cooling to room temperature (3 min). Next, samples were lysed by threefreeze–thaw cycles in liquid nitrogen and centrifuge at 16000 g for 30 min, 4 °C. Equal volumes of control and tested samples (12 μL) were analyzed by Western blot. The changes in the amount of METTL3 protein (after normalization for β-actin and/or GAPDH) were monitored by performing densitometry in Image Studio Lite software and analyzed in GraphPad Prism 9.

METTL3 [2] = target: T3, METTL3 (Homo sapiens, UniProt Q86U44+Q96SW2); assay: In vitro ubiquitination assay, METTL3; format: biochemical; conditions: 2 μM compound, 30 °C, 2 h
T3 construct: Human full-length METTL3-METTL14 was expressed and purified as described above; Human full-length cereblon-DDB1 and 6xHis-CUL4A-6xHis-RBX1 were coexpressed; StrepII (N); GFP (N); TEV site (N); made in house; host or cells: baculovirus/Sf9 insect cells (METTL3-METTL14, cereblon-DDB1, CUL4A-RBX1)
Protocol: (§1) For the cell-free in vitro ubiquitination of METTL3-METTL14 purified E1, E2, ubiquitin, CUL4A-RBX1, Cereblon-DDB1, and METTL3-METTL14 were used. Human full-length METTL3-METTL14 was expressed and purified as described above. […] Purified recombinant human UBE1 E1 (E-305–025) was purchased from R&D Systems, UbcH5a E2 (23–029) from Merck and ubiquitin (SBB-UP0013) from South Bay Bio. For the ubiquitination reaction, components were mixed to final concentrations of 0.06 μM UBE1, 1.96 μM UbcH5a, 39 μM ubiquitin, 0.33 μM CUL4A-RBX1, 0.33 μM Cereblon-DDB1, 0.5 μM METTL3-METTL14, and different concentrations of compound 14 or me-14 (0, 2, 8, or 32 μM) in reaction buffer (50 mM Tris-HCl pH 7.6, 5 mM MgCl2, 0.2 mM CaCl2, 1 mM DTT, 100 mM NaCl, 0.01% BSA, 0.01% Triton X-100). The final reaction volume was 15 μL. After the addition of 2 mM ATP (or the equal volume of water for the control without ATP), the reaction mixture was incubated for 2 h at 30 °C. […] The signals were quantified by using the Image Studio Lite software. To determine the percentage of ubiquitinated METTL3, the fraction of unmodified METTL3 was calculated by dividing the signal of the band assigned to unmodified METTL3 by the signal of the area containing both the unmodified and (poly)ubiquitinated METTL3 and normalizing to the control without ATP. […]

METTL14 = assay: In vitro ubiquitination assay, METTL14; format: biochemical, human; conditions: 2, 8, 32 μM compound, 30 °C, 2 h
Protocol: as §1

T1 sequence (Q96SW2 whole entry): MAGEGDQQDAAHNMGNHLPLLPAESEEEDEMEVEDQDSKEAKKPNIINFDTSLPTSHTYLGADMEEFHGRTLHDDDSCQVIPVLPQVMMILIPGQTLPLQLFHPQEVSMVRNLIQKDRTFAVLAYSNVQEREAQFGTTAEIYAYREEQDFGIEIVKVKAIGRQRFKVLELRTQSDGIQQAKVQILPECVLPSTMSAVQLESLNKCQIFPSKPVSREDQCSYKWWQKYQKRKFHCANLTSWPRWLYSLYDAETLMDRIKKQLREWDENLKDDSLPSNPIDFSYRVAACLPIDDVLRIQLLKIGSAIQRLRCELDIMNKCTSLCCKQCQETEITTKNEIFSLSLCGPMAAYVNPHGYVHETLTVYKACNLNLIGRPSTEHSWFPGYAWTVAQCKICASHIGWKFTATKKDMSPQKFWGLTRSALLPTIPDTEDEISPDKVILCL
T3 sequence (Q86U44 whole entry): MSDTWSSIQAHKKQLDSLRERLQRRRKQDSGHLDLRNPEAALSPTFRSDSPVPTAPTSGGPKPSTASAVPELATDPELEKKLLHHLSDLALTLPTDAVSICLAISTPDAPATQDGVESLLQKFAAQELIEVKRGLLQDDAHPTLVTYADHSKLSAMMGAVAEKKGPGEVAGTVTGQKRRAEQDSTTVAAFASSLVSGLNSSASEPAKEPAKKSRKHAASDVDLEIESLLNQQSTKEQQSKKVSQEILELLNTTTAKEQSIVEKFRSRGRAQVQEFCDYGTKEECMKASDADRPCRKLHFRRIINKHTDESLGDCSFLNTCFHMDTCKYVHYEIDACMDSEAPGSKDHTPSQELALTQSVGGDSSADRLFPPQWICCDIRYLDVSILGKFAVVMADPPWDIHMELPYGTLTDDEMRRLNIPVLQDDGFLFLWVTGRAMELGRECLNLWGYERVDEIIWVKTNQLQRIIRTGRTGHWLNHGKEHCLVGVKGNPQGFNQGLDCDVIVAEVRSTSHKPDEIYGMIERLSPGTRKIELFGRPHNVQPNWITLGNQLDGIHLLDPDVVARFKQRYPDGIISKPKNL
T3 sequence (Q9HCE5 whole entry partner): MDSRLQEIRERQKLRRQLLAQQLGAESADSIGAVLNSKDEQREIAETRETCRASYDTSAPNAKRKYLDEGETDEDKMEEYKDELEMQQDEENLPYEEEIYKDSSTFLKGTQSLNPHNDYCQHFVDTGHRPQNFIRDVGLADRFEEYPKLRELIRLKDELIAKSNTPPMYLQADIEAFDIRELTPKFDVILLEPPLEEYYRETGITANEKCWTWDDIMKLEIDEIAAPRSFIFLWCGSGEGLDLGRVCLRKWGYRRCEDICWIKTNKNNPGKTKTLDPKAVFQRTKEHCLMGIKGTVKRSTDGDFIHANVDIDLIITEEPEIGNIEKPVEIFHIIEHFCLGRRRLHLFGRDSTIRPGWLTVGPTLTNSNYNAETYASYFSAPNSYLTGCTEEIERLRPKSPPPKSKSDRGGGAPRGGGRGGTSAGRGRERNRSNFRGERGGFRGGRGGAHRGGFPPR
T3 sequence (Q96SW2 whole entry): as the sequence (Q96SW2 whole entry) above
T3 sequence (Q16531 whole entry partner): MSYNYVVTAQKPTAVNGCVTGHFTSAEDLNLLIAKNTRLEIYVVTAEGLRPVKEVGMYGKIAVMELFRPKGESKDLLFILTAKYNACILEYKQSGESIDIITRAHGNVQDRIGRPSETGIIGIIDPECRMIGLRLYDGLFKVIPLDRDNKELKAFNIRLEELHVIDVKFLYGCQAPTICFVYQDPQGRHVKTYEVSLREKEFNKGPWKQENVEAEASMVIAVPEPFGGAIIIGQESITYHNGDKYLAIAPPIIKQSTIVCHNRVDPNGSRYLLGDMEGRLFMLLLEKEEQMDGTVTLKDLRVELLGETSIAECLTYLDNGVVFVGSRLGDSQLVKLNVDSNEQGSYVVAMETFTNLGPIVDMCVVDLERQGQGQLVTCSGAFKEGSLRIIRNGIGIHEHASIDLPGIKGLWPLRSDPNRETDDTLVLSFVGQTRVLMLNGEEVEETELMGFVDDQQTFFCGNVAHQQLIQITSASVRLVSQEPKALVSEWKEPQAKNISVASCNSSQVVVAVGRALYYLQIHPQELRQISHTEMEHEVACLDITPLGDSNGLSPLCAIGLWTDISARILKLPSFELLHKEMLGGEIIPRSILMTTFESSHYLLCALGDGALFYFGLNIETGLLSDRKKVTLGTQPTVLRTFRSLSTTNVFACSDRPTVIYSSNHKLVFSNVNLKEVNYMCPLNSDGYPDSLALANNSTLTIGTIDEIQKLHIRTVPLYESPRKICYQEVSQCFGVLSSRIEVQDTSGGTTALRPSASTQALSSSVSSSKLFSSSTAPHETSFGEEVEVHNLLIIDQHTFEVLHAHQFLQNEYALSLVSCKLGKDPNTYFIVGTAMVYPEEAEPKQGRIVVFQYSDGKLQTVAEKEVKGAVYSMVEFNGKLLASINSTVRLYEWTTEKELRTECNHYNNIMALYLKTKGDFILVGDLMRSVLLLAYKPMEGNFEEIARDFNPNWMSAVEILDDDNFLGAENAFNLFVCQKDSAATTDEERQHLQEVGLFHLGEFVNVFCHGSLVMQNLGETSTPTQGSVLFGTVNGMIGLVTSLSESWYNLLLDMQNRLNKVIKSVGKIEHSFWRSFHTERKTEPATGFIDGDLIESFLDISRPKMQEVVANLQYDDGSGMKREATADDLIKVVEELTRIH
T3 sequence (Q13619 whole entry partner): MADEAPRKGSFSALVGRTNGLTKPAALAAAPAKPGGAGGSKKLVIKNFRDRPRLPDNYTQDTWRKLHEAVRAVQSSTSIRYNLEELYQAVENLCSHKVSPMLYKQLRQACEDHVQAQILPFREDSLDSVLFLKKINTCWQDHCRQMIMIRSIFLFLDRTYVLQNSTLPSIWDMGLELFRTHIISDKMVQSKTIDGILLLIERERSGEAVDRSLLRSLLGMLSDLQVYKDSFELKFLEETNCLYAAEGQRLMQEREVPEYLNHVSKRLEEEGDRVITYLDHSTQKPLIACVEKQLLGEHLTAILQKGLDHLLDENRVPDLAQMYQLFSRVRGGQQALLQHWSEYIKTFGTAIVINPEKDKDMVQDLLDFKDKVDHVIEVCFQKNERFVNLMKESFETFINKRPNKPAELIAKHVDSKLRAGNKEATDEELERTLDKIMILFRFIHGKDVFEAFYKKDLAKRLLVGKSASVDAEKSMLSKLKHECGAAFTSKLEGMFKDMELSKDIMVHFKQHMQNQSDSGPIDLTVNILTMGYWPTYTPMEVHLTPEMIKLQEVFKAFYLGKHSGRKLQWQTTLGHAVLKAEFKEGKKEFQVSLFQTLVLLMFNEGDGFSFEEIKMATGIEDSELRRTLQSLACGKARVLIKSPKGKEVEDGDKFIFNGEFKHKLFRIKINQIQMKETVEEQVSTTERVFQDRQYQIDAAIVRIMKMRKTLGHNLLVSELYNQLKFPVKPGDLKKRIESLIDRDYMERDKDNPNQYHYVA
T3 sequence (P62877 whole entry partner): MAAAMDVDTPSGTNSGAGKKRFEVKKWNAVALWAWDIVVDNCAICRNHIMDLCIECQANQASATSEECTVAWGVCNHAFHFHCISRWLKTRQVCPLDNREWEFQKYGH
T2 sequence (Q86U44 2-580 limits assumed): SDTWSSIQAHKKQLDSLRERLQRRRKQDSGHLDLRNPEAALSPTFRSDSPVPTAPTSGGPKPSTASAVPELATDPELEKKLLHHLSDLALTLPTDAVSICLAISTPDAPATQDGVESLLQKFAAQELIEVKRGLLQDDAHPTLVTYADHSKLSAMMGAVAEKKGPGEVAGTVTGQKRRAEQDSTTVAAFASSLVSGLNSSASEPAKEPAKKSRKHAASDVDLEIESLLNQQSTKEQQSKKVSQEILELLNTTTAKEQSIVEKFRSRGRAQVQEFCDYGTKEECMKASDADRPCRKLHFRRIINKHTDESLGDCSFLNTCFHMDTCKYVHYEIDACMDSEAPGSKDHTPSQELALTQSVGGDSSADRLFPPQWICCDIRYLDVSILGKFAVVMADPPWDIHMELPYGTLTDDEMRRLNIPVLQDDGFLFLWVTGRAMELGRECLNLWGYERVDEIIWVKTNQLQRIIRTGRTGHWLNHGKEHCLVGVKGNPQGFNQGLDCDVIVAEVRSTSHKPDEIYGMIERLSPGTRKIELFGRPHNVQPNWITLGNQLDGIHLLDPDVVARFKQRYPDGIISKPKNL
T2 sequence (Q9HCE5 whole entry partner): as the sequence (Q9HCE5 whole entry partner) above

CC1(C)CCN(Cc2cc(F)c(N3CC(=O)NC4(CCN(c5cc(NCc6cccc(CNC(=O)CCCNc7cccc8c7C(=O)N(C7CCC(=O)NC7=O)C8=O)c6)ncn5)CC4)C3)cc2F)CC1 (stereo not shown) [Compound 14]
stabilization of Cereblon (CETSA) (Cereblon (CRBN)): visible
stabilization of METTL3 (CETSA) (METTL3 [1]): stabilize METTL3 in a concentration-dependent manner
ubiquitination level of METTL3 (METTL3 [2]): ~40%
ubiquitination of METTL14 (METTL14): not as pronounced
